Read-outs that look alike come from different tables or passages of the source.
Experiments:
TRPC5 = target: T1, TRPC5 (Homo sapiens, UniProt Q9UL62); assay: Automated patch clamp assay, HEK293 cells overexpressing TRPC5, current block after rosiglitazone stimulation; assay type: cell-based; settings: whole cell automated patch
T1 construct: expressed in transfected cells
T1 sequence (Q9UL62 1-973): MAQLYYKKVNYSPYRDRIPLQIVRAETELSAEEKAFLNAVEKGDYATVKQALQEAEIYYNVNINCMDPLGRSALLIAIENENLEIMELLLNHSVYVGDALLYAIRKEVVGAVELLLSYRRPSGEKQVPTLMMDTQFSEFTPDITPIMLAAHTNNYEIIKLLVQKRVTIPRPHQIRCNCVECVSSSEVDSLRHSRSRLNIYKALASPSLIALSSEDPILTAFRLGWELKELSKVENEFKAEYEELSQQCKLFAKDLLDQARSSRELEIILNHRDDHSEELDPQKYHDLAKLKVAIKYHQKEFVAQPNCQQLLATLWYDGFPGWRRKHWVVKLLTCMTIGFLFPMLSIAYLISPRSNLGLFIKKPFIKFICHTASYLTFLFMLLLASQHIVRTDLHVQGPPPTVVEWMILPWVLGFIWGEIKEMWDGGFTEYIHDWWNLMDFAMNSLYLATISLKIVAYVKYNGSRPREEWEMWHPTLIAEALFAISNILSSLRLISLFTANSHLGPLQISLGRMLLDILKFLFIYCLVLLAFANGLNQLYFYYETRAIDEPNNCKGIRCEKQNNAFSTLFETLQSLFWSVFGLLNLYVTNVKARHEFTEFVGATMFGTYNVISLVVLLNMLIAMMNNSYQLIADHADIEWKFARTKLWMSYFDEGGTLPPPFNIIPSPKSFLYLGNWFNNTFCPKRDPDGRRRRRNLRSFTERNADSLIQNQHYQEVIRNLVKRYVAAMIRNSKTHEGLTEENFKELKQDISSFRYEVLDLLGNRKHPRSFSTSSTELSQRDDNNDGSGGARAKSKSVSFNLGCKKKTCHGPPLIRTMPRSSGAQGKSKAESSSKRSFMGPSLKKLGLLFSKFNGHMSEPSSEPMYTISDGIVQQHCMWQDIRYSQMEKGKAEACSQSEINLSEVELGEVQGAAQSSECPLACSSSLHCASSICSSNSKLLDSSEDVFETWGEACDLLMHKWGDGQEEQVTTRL

[1] = system: deoxycorticosterone acetate (DOCA)-salt hypertensive rats; assay: Albuminuria in DOCA-salt hypertensive rats; assay type: in vivo, Sprague Dawley rats
Source text: The aim of this study was to evaluate the effects of the TRCP5 inhibitor, AO, to attenuate the development and/or progression of albuminuria in deoxycorticosterone acetate (DOCA)-salt hypertensive rats.
The DOCA-salt hypertensive rat model is a well-established model of mineralocorticoid hypertension with renal dysfunction, characterized by increase levels of urinary protein and albumin excretion. [Schenk et al., “The pathogenesis of DOCA-salt hypertension,” J. Pharmacol. Toxicol. Methods (May 1992) 27(3):161-170; Gomez-Sanchez et al., “Mineralocorticoids, salt and high blood pressure,” Steroids (1996) 61:184-188.]
Six to seven weeks old Sprague Dawley rats were unilaterally nephrectomized; after one-week recovery, rats were implanted with a DOCA pellet (45 mg) and provided tap water containing 0.9% NaCl and 0.2% KCl (Day 1) for a 3 weeks treatment. On Day 1, DOCA-salt rats received one daily dose, subcutaneously (SC), of AO at 30 mg/kg for 3 weeks; control animals for DOCA treatment were administered vehicle or eplerenone, an aldosterone blocker; sham animals, implanted with a silicone-water pellet, were given tap water and received SC administration of the vehicle. Proteinuria, albuminuria and arterial blood pressure as well as body weight were recorded every week.

murine podocytes = assay: Murine podocytes with protamine sulfate injury; assay type: cell-based; settings: pretreated 0.1, 1, 10 uM for 20 minutes, 300 ug/mL protamine sulfate 1 hour
Experimental: Conditionally immortalized murine podocytes were differentiated for 14 days in gamma-interferon-free media[Synaptopodin Is a Coincidence Detector of Tyrosine versus Serine/Threonine Phosphorylation for the Modulation of Rho Protein Crosstalk in Podocytes. Buvall L, Wallentin H, Sieber J, Andreeva S, Choi H Y, Mundel P, Greka A. J Am Soc Nephrol. 2017 March; 28(3):837-851. doi: 10.1681/ASN.2016040414. Epub 2016 Sep. 14.]. Murine podocyte cells were pretreated with 0.1, 1, 10 uM of AO or DMSO for 20 minutes then insulted with 300 ug/mL of protamine sulfate (PS) for 1 hour; 3 technical replicate plates were treated for each condition. Murine cells were washed with 1×DPBS −/−, fixed in 4% PFA+4% sucrose for 10 minutes at room temperature, washed 3 times with 1×DPBS −/−, permeabilized with 0.3% triton, and probed for phalloidin, synaptopodin, and DAPI (Proteasomal degradation of Nck1 but not Nck2 regulates RhoA activation and actin dynamics. Buvall L, Rashmi P, Lopez-Rivera E, Andreeva S, Weins A, Wallentin H, Greka A, Mundel P. Nat Commun. (2013) 4:2863. doi: 10.1038/ncomms3863.). Tiled images were acquired using a Zeiss LSM880 Airyscan super resolution confocal microscope using ZEN 2.3. Manual quantitation of cells with or without collapsed actin cytoskeleton were quantified. […]

[2] = system: human iPSC derived kidney organoids; assay: Human iPSC derived kidney organoids with protamine sulfate injury; assay type: cell-based; settings: pretreated 0.2, 2, 20 uM for 20 minutes, 300 ug/mL protamine sulfate 1 hour; vs protamine sulfate alone
Experimental: Human iPSC derived kidney organoids differentiated for 22 days [Generation of kidney organoids from human pluripotent stem cells. Takasato M, Er P X, Chiu H S, Little M H. Nat Protoc. 2016 September; 11(9):1681-92. doi: 10.1038/nprot.2016.098. Epub 2016 Aug. 18.] were pretreated with 0.2, 2, 20 uM of AO or DMSO for 20 minutes then insulted with 300 ug/mL of protamine sulfate for 1 hour; 3 technical replicate organoids were treated for each condition. Organoids were washed twice with 1×DPBS−/−, fixed in 4% PFA for 25 minutes at room temperature, washed twice with 1×DPBS−/−, and transferred to 30% sucrose at 4° C. overnight, then snap frozen in Tissue-Tek O.C.T. compound. Organoids were cryosectioned at […] thickness and stained for phalloidin. Tiled images were acquired using a Zeiss LSM880 Airyscan super resolution confocal microscope using ZEN 2.3. Mean intensity values were quantified using Fiji/ImagJ1.52d.

[3] = DOCA-AO compared to sham animals, week 1 to 3
[4] = DOCA-salt treatment followed by AO

In the case of `O=C1CN(c2cn[nH]c(=O)c2Cl)CCN1Cc1ccccc1C(F)(F)F` [AO], the IC50 (TRPC5; 80 mV, read-out: TRPC5_QP_XC50_80) is reported as 0.01 to 1000 nM, the IC50 (TRPC5; 100 mV, read-out: TRPC5_QP_X50_100) is reported as 0.01 to 1000 nM and the urinary albumin excretion ([1]; 30 mg/kg SC daily, week 1 to week 3, vs DOCA-vehicle control rats, significance at week 3 (p value 0.0011)) is reported as “attenuated”. For the same compound, the adverse effects ([1]; 30 mg/kg SC once daily for 3 weeks) was “No adverse effects were observed”, the body weight ([1]; DOCA vs DOCA-AO, 30 mg/kg SC once daily for 3 weeks) was “no significant difference” and the “diastolic BP” value [1, 3] was “elevated”. The “mean arterial blood pressure (BP)” value [1, 3] was “elevated”, the “systolic BP” value [1, 3] was “elevated” and the “urine volume produced per day” value [1, 4] was “elevated”. The water intake [1, 4] was “elevated”, the “murine cells protected from cytoskeletal collapse induced by protamine sulfate” value (murine podocytes) was ~20% and the “injury from protamine sulfate (mean phalloidin intensity per organoid)” value [2] was “decreased injury”.
